Tested on: diabetes model rats created by administration of streptozotocin
Assay: Blood glucose level measurement test after insulin administration
Format: in vivo, rat
Details: 0.5, 1 and 2 hours, fasted diabetes model rats, FIG. 2
Experimental: Insulin was transdermally administered to rats using the manufactured microneedle array.
In diabetes model rats created by administration of streptozotocin (Body weight: about 300 g), their abdomens were dehaired. After these rats were fasted for 14 hours or longer, the microneedle array was inserted to the dehaired skin and fixed to the skin by YU-KI BAN (NITTO MEDICAL CORPORATION). Blood was sampled 0.5, 1 and 2 hours after administration of the microneedle array, and the blood glucose levels were measured. For measurement of the blood glucose levels, Glucose CII-test kit (Wako Pure Chemical Industries, Ltd.) was used. The tests were conducted in four cases.
Insulin was subcutaneously injected to rats.
After the diabetes model rats were fasted for 14 hours or longer, 0.25 units of insulin were subcutaneously injected. Blood was sampled 0.5, 1 and 2 hours after administration of insulin, and the blood glucose levels were measured. For measurement of the blood glucose levels, Glucose CII-test kit was used like Example 1. […]. The tests were conducted in four cases.
As a standard of the blood glucose level measurement test, a control (no insulin) was measured.
After the diabetes model rats were fasted for 14 hours or longer, blood was sampled 0.5, 1 and 2 hours later, and the blood glucose levels were measured. […]

insulin: Bovine insulin (NACALAI TESQUE), given on hyaluronic acid microneedle array tips (0.25 unit per array) or by subcutaneous injection
blood glucose level (relative value, time zero = 100) (microneedle array, 0.25 unit insulin, transdermal on dehaired abdomen): lowered | blood glucose level (relative value, time zero = 100) (subcutaneous injection, 0.25 units of insulin): lowered

— US9993423B2, “Microneedle deposition method” (COSMED PHARMACEUTICAL CO., LTD., priority 2011, dated 2018)
